Reference: patent US12486267B2, “Imidazo[1,2-A]pyridine and [1,2,4]triazolo[1,5-A]pyridine derivatives as TLR9 inhibitors for the treatment of fibrosis” (BRISTOL-MYERS SQUIBB COMPANY, priority 2020, dated 2025)
pIC50: −log10 of the molar value.

Key:
Type in all cases: cell-based
human TLR9 = molecular target: T1, human TLR9 (Homo sapiens, UniProt Q9NR96); experiment: TLR9 inhibition reporter assay (HEK-Blue cells, SEAP reporter); conditions: HEK-Blue cells overexpressing human TLR9; stimulated with ODN2006 5 nM; 22 hour incubation; SEAP readout
T1 sequence (Q9NR96 26-1032): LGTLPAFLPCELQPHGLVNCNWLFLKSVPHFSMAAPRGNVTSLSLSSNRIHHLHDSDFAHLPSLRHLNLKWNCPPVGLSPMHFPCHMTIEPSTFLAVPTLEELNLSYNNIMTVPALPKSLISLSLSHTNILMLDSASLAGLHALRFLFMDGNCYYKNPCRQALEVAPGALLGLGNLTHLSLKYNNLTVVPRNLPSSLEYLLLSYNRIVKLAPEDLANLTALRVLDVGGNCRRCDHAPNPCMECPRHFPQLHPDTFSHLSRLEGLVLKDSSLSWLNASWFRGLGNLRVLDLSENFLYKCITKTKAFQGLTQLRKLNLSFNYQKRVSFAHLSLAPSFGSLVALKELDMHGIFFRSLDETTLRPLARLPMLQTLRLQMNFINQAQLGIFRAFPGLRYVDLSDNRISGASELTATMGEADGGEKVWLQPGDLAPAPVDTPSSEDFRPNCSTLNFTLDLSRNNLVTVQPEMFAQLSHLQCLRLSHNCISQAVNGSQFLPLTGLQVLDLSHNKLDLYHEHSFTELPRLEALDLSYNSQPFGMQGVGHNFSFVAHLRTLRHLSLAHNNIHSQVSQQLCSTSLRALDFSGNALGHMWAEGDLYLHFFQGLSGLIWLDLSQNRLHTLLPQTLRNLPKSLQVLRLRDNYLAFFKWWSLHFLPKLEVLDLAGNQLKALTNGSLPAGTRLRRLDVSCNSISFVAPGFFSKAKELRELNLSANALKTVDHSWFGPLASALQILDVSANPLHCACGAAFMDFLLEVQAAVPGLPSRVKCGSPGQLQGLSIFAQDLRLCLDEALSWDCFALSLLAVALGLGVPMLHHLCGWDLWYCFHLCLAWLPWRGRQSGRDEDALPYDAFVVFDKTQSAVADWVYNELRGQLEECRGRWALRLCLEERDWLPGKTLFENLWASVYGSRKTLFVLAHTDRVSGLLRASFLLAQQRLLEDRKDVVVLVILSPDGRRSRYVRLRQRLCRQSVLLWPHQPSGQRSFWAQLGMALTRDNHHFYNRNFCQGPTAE
In short: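 HEK-Blue cells with an NF-κB/AP-1-driven SEAP reporter were pre-treated 30 min at room temperature with compound (0.05 nM–50 μM), then stimulated with gardiquimod 7.5 μM (TLR7), R848 15.9 μM (TLR8) or ODN2006 5 nM (TLR9). After 22 h at 37 °C, SEAP was read; % inhibition was referenced to agonist+DMSO and known-inhibitor wells.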

human TLR7 = molecular target: T2, human TLR7 (Homo sapiens, UniProt Q9NYK1); experiment: TLR7 inhibition reporter assay (HEK-Blue cells, SEAP reporter); conditions: HEK-Blue cells overexpressing human TLR7; stimulated with gardiquimod 7.5 μM; 22 hour incubation; SEAP readout
T2 sequence (Q9NYK1 27-1049): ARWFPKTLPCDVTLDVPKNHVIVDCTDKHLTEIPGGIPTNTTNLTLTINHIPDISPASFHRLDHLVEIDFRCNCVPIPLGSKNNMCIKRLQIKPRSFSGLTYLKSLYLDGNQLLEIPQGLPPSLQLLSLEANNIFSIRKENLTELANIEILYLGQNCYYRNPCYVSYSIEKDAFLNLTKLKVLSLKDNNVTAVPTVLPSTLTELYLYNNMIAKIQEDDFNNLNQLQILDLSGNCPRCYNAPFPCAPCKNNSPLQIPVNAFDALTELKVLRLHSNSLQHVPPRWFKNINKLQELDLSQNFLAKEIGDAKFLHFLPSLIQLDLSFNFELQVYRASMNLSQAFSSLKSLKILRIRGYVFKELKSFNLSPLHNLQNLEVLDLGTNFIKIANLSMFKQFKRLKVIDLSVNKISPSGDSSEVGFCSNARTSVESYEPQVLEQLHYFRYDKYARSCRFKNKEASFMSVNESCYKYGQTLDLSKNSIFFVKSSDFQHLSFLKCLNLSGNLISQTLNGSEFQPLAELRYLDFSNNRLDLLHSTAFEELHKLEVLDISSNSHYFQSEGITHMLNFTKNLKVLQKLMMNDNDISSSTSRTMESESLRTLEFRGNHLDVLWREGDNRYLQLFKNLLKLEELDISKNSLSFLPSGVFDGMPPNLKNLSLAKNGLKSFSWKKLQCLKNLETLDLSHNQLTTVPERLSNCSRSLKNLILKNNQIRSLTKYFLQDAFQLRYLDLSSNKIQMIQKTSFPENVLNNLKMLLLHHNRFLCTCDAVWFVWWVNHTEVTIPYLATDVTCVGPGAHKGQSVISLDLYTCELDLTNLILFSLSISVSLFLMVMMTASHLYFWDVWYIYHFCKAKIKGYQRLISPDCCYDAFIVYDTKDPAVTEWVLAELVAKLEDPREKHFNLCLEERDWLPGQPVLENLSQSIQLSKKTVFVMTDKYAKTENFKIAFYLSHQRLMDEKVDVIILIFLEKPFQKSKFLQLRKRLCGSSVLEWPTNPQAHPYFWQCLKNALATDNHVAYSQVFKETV
Protocol: (§1) TLR7/8/9 Inhibition Reporter Assays
(§2) HEK-Blue™-cells (Invivogen) overexpressing human TLR7, TLR8 or TLR9 receptors were used for screening inhibitors of these receptors using an inducible SEAP (secreted embryonic alkaline phosphatase) reporter gene under the control of the […] minimal promoter fused to five NF-κB and AP-1-binding sites. Briefly, cells are seeded into Greiner 384 well plates (15000 cells per well for TLR7, 20,000 for TLR8 and 25,000 for TLR9) and then treated with test compounds in DMSO to yield a final dose response concentration range of 0.05 nM-50 μM. After a 30 minute compound pre-treatment at room temperature, the cells are then stimulated with a TLR7 ligand (gardiquimod at a final concentration of 7.5 μM), TLR8 ligand (R848 at a final concentration of 15.9 μM) or TLR9 ligand (ODN2006 at a final concentration of 5 nM) to activate NF-κB and AP-1 which induce the production of SEAP. After a 22 hour incubation at 37° C., 5% CO2, SEAP levels are determined with the addition of HEK-Blue™ Detection reagent (Invivogen), a cell culture medium that allows for detection of SEAP, according to manufacturer's specifications. The percent inhibition is determined as the % reduction in the HEK-Blue signal present in wells treated with agonist plus DMSO alone compared to wells treated with a known inhibitor.

human TLR8 = molecular target: T3, human TLR8 (Homo sapiens, UniProt Q9NR97); experiment: TLR8 inhibition reporter assay (HEK-Blue cells, SEAP reporter); conditions: HEK-Blue cells overexpressing human TLR8; stimulated with R848 15.9 μM; 22 hour incubation; SEAP readout
T3 sequence (Q9NR97 27-1041): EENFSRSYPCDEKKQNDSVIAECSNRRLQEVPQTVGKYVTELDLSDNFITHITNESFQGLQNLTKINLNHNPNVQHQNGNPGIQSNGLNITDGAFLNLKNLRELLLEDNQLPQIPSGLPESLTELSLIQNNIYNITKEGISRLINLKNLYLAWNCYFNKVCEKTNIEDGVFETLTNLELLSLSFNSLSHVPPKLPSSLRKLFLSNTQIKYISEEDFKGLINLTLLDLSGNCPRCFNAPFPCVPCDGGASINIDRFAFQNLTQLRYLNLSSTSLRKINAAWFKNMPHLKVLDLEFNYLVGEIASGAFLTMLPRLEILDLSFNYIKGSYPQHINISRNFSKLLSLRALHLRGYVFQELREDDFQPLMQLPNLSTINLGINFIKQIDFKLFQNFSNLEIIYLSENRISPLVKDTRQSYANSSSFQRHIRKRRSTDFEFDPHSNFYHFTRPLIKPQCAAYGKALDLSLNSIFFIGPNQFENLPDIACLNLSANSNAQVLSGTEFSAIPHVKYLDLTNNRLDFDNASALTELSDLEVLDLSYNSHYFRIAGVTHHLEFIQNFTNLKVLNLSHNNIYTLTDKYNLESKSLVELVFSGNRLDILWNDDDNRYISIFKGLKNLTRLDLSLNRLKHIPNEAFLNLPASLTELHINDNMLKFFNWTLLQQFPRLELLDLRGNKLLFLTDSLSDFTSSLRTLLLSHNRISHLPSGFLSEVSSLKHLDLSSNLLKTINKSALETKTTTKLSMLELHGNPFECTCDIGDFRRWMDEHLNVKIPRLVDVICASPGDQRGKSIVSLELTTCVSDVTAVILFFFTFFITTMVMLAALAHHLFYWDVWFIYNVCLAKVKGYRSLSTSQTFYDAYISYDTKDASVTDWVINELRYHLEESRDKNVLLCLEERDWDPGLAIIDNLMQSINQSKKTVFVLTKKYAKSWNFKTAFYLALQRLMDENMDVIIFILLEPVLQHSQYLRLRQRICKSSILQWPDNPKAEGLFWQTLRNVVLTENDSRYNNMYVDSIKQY
Protocol: as §1, §2

SMILES	pIC50 (human TLR9)	pIC50 (human TLR7)	pIC50 (human TLR8)
COc1ccc(-c2cn3cc(C4CCN(C5CC6CCC(C5)N6C(C)C)CC4)cc(C)c3n2)cc1OC (single isomer, unassigned) [Example 23, 2-(3,4-dimethoxyphenyl)-6-(1-(8-isopropyl-8-azabicyclo[3.2.1]octan-3-yl)piperidin-4-yl)-8-methylimidazo[1,2-a]pyridine]	6.62	4.51	< 4.30
COc1ccc(-c2cn3cc(C4CC5CCC(C4)N5C4CCN(C5CC5)CC4)cc(C)c3n2)cc1OC (single isomer, unassigned) [Example 25, 6-(8-(1-cyclopropylpiperidin-4-yl)-8-azabicyclo[3.2.1]octan-3-yl)-2-(3,4-dimethoxyphenyl)-8-methylimidazo[1,2-a]pyridine]	7.80	5.46	4.70
COc1ccc(-c2cn3cc(C4CC5CCC(C4)N5C4CCN(C5CC5)CC4)cc(C)c3n2)cc1OC (single isomer, unassigned) [Example 26, 6-(8-(1-cyclopropylpiperidin-4-yl)-8-azabicyclo[3.2.1]octan-3-yl)-2-(3,4-dimethoxyphenyl)-8-methylimidazo[1,2-a]pyridine]	7.07	5.70	< 4.30
COc1ccc(-c2cn3c(n2)CCC(C2CCN(C4CCN(C5CC5)CC4)CC2)C3)cc1OC (single isomer, unassigned) [Example 37, 6-(1′-cyclopropyl-[1,4′-bipiperidin]-4-yl)-2-(3,4-dimethoxyphenyl)-5,6,7,8-tetrahydroimidazo[1,2-a]pyridine]	7.21	5.40	< 4.30

Results, then the molecule that gave them:

pIC50 (human TLR9)	pIC50 (human TLR7)	pIC50 (human TLR8)	SMILES
7.42	5.55	< 4.30	COc1ccc(-c2cn3c(n2)CCC(C2CCN(C4CCN(CC(C)C)CC4)CC2)C3)cc1OC (single isomer, unassigned) [Example 32, 2-(3,4-dimethoxyphenyl)-6-(1′-isobutyl-[1,4′-bipiperidin]-4-yl)-5,6,7,8-tetrahydroimidazo[1,2-a]pyridine]
7.25	5.51	< 4.30	COc1ccc(-c2cn3c(n2)CCC(C2CCN(C4CCN(CC(C)C)CC4)CC2)C3)cc1OC (single isomer, unassigned) [Example 33, 2-(3,4-dimethoxyphenyl)-6-(1′-isobutyl-[1,4′-bipiperidin]-4-yl)-5,6,7,8-tetrahydroimidazo[1,2-a]pyridine]
7.38	4.89	< 4.30	COc1ccc(-c2cn3c(n2)CCC(C2CCN(C4CCN(C(C)C)CC4)CC2)C3)cc1OC (single isomer, unassigned) [Example 35, 2-(3,4-dimethoxyphenyl)-6-(1′-isopropyl-[1,4′-bipiperidin]-4-yl)-5,6,7,8-tetrahydroimidazo[1,2-a]pyridine]
7.24	5.11	< 4.30	COc1ccc(-c2cn3c(n2)CCC(C2CCN(C4CCN(C(C)C)CC4)CC2)C3)cc1OC (single isomer, unassigned) [Example 36, 2-(3,4-dimethoxyphenyl)-6-(1′-isopropyl-[1,4′-bipiperidin]-4-yl)-5,6,7,8-tetrahydroimidazo[1,2-a]pyridine]
7.35	5.22	< 4.30	COc1ccc(-c2cn3c(n2)CCC(C2CCN(C4CCN(C5CC5)CC4)CC2)C3)cc1OC (single isomer, unassigned) [Example 38, 6-(1′-cyclopropyl-[1,4′-bipiperidin]-4-yl)-2-(3,4-dimethoxyphenyl)-5,6,7,8-tetrahydroimidazo[1,2-a]pyridine]
6.73	4.42	< 4.30	COc1ccc(-c2cn3c(n2)CCC(C2CCN(C4CCN(C(=O)C(C)C)CC4)CC2)C3)cc1OC (single isomer, unassigned) [Example 40, 1-(4-(2-(3,4-dimethoxyphenyl)-5,6,7,8-tetrahydroimidazo[1,2-a]pyridin-6-yl)-[1,4′-bipiperidin]-1′-yl)-2-methylpropan-1-one]
